This is an account of results in patent US12472263B2, “Ophthalmic formulation” (PANOPTES PHARMA GES.M.B.H., priority 2018, dated 2025).

≈ marks a conversion by molar mass, not a printed value. Structures can show the parent of a compound that is named as a salt. Where two headings read alike, the source gives them in different places.

A word on the solubility (thermodynamic): it is the concentration in solution at equilibrium with solid. In general, fraction unbound refers to free concentration divided by total concentration. Low values mean extensive binding, high ones weak binding. The term Cmax denotes the peak of the concentration-time curve. As a reminder, the solubility is the concentration that dissolves in the medium under given conditions.

A short description of data set [1]: Thermodynamic solubility in PBS pH 7.4 and in 5% HSA in PBS. To be noted: for solubility thermodynamic: thermodynamic from solid; for Increase in solubility: from PBS to 5% HSA in PBS. Type of data set: physicochemical. As for the experimental part: The process was initiated by adding 1 mL of defined buffer to about 1 mg of the solid compound. The solutions were mixed for at least 15 hours. If there was no undissolved substance in the solution visible, an additional portion of the solid compound was added and the solution was further mixed for at least 15 hours. This step was repeated until a saturated solution in equilibrium was achieved; excess solid was clearly visible. The total mixing time until equilibrium should exceed 40 hours. After reaching the equilibrium, the solutions were centrifuged for 10 minutes at 14,000 rpm.

The target of data set [2] is T1, HSA (human serum albumin) (Homo sapiens, UniProt P02768). Put plainly: Binding of different pharmaceutically active compounds to albumin, RED assay. The following applies: 5 h, pH 7.4. Type of data set: in vitro ADME. The procedure:
(§1) For analysis of binding of different pharmaceutically active compounds to HSA (human serum albumin) a rapid equilibrium dialysis (RED) assay from Thermo Scientific™ was conducted. Different pharmaceutically active compounds (in saturated solutions as prepared in Example 1) were applied to the donor side of the device. PBS pH 7.4 was used as acceptor medium. The time required to achieve equilibrium in the dialysis was determined to 5 hours. The formulations were incubated at 23° C. at 300 rpm. The unbound fraction was allowed to permeate through the dialysis membrane into the acceptor buffer chamber. After 5 hours equilibration time, the unbound fraction was determined by analyzing the amount of the active compound in each compartment via LC/MS.
The amount of free compound was calculated according to the equation:
The amount of bound compound is calculated as % bound=100−% free

Data set [3] addresses T1, HSA (human serum albumin). Put plainly: Binding of PP-001 to albumin, rapid equilibrium dialysis (RED) assay. Type of data set: in vitro ADME. The procedure: as §1, with “PP-001” for “different pharmaceutically active compounds”, “PP-001 formulations” for “pharmaceutically active compounds (in saturated solutions as prepared in Example 1)”, “device and 50 mM phosphate buffer” for “device. PBS”, “time” for “time,”, “PP-001” for “the active compound”, “HPLC/DAD.” for “LC/MS.”
(§2) To investigate nonspecific binding of PP-001 to the RED Device Inserts, a solution of 0.05 mg/mL PP-001 in 50 mM phosphate buffer pH 7.4 was used as a control sample. PP-001 concentration in the acceptor compartment was >82% of the concentration in the donor compartment. Only minor non-specific binding of PP-001 to the RED device was determined.
(§3) The amount of free PP-001 was calculated according to the equation:
(§4) The amount of bound PP-001 is calculated as % bound=100−% free
(In general: In equilibrium dialysis only unbound substance equilibrates across the membrane.)

For data set [4], the target named is human serum albumin (Homo sapiens, UniProt P02768). Described as above. Type of data set: in vitro ADME. To be noted: PP-001/human serum albumin formulation, pH 7.4; formulation dosed in the rabbit PK study. As for the experimental part: as §1, with “PP-001” for “different pharmaceutically active compounds”, “PP-001 formulations” for “pharmaceutically active compounds (in saturated solutions as prepared in Example 1)”, “device and 50 mM phosphate buffer” for “device. PBS”, “time” for “time,”, “PP-001” for “the active compound”, “HPLC/DAD.” for “LC/MS.”
as §2, §3, §4

Data set [5] in a line: PK study in rabbits after topical ocular administration. Type of data set: in vivo, New Zealand White rabbits. As for the experimental part: To confirm that PP-001/albumin formulations deliver sufficient PP-001 to target tissues (i.e. conjunctiva and cornea), a pharmacokinetic study was performed in New Zealand White rabbits.
10 female animals of ca. 3 months age were dosed one drop (35 μL drop size) of the formulation 1 (3 mg/ml PP-001) in both eyes at time point 0. Animals were sacrificed 5 or 30 minutes or 2, 4, or 12 hours after dosing and ocular tissues and plasma were collected. PP-001 concentration in plasma and tissues were determined by a validated HPLC-MS analytical method.

A short description of data set [6]: Aqueous solubility in phosphate buffer pH 7.4, without and with 5% albumin. To be noted: thermodynamic from solid. Type of data set: physicochemical. As for the experimental part:
As used herein, “solubility in aqueous solution of at least X mg/mL” refers to thermodynamic solubility of a compound in an aqueous 50 mM phosphate buffer or phosphate buffered saline (PBS) solution at pH 7.4 at least X mg/mL. PP-001 has a solubility of 0.8 mg/mL in an aqueous phosphate buffer solution at pH 7.4. However, if the aqueous buffer solution comprises 5% albumin PP-001 has solubility of at least 5 mg/mL.

In data set [7] the test system is uveitis. The following applies: cited from earlier work.
Setting [8] is: aqueous buffer, PBS pH 7.4, saturated, LC/MS, read-out: Thermodynamic solubility in PBS pH 7.4.
Where [9] appears, read: plasma or biological fluid, 5% HSA in PBS pH 7.4, saturated, LC/MS, read-out: Thermodynamic solubility in 5% HSA in PBS pH 7.4.

T1 sequence (P02768 25-609): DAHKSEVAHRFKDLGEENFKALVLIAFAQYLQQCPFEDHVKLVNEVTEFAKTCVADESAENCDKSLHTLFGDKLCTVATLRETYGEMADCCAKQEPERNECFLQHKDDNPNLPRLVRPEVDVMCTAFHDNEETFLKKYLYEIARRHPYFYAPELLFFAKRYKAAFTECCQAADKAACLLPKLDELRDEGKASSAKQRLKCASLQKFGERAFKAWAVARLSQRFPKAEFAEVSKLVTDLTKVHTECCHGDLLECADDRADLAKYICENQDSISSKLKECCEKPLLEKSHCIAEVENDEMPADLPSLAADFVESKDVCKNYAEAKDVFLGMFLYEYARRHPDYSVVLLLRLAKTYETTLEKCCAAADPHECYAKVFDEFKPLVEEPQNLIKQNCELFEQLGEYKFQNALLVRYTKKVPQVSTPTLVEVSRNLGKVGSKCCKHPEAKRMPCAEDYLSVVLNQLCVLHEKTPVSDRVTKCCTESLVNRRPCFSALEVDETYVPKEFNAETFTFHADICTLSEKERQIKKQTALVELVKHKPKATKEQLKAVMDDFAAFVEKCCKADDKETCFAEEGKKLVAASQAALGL
Chain of human serum albumin (P02768 25-609): as above

For `CN1CCCC(n2nc(Cc3ccc(Cl)cc3)c3ccccc3c2=O)CC1` (stereo not drawn) [Azelastine HCl], the figures for the solubility (thermodynamic) in data set [1] (setting [8]) and in data set [1] (setting [9]) were 421 µg/mL and 827 µg/mL, respectively. The same compound registered an Increase in solubility in data set [1] of 96%. Besides, in data set [2] (isolated protein), the “% bound” value is recorded as 80.9%.
The like results for `CCNC(=O)CCC/C=C\C[C@@H]1[C@@H](/C=C/[C@@H](O)CCc2ccccc2)[C@H](O)C[C@@H]1O` [Bimatoprost] were, in that order, 1230 µg/mL (≈ 2970 µM), 3010 µg/mL (≈ 7230 µM), 144% and 77.6%.
For `CCN[C@H]1CN(CCCOC)S(=O)(=O)c2sc(S(N)(=O)=O)cc21` [Brinzolamide], the thermodynamic solubility in data set [1] (setting [8]) is 273 µg/mL (≈ 712 µM); in data set [1] (setting [9]), 387 µg/mL (≈ 1010 µM). This compound also showed an Increase in solubility in data set [1] of 42%. The “% bound” value in data set [2] (isolated protein) is 70.3%.
The like results for `CNCC(O)c1ccc(OC(=O)C(C)(C)C)c(OC(=O)C(C)(C)C)c1` (stereo not drawn) [Dipivefrin HCl] were, in that order, 2340 µg/mL, 7440 µg/mL, 218% and 64.8%.
On the same counts, the results for `CC(=O)O[C@H]1C[C@@]2(C)[C@@H](C[C@@H](O)[C@H]3[C@@]4(C)CC[C@@H](O)[C@@H](C)[C@@H]4CC[C@@]32C)/C1=C(\CCC=C(C)C)C(=O)O` [Fusidic Acid] are 483 µg/mL (≈ 935 µM), 1420 µg/mL (≈ 2750 µM), 195% and 95.7%.
Regarding `C[C@@H]1CN([C@H]2CC[C@](C#N)(c3ccc(F)cc3)CC2)CC[C@]1(C(=O)O)c1ccccc1` [Levocabastine HCl], the solubility (thermodynamic) was found to be 3 µg/mL in data set [1] (setting [8]) and 83 µg/mL in data set [1] (setting [9]). The Increase in solubility was 2,333%^ in data set [1] (HCl) and 2,333% in data set [1] (listed as levocabastine HCl, HCl). Besides, the “% bound” value in data set [2] (isolated protein) is reported as 75.4%.
Regarding `NC(=O)Cc1cccc(C(=O)c2ccccc2)c1N` [Nepafenac], the solubility (thermodynamic) is 9 µg/mL (≈ 35.4 µM) in data set [1] (setting [8]) and 64 µg/mL (≈ 252 µM) in data set [1] (setting [9]). In data set [1], the Increase in solubility stood at 619%. Also, the “% bound” value in data set [2] (isolated protein) came out at 92.1%.
Take `O=C(Nc1c(F)c(F)c(-c2cccc(OC(F)(F)F)c2)c(F)c1F)c1ccsc1C(=O)O` [PP-001, 3-(2,3,5,6-tetrafluoro-3′-trifluoromethoxy-biphenyl-4-ylcarbamoyl)-thiophene-2-carboxylic acid]: in data set [3] (0.05 mg/mL PP-001 in 50 mM phosphate buffer pH 7.4, no albumin), the “PP-001 concentration in the acceptor compartment as % of the donor compartment (nonspecific binding control)” value is > 82%. Also, the “binding of PP-001 to albumin (in words)” value in data set [3] (even at high PP-001 concentrations) is given as “nearly completely bound to albumin”. In addition, the fraction unbound at 5 h, 3 mg/ml in data set [4] was < 0.05. Also, the Cmax in data set [5] (female, New Zealand White, rabbit, plasma, topical, 35 μL drop of 3 mg/ml per eye, one 35 μL drop of formulation 1 (3 mg/ml PP-001) in both eyes) is < 9 ng/mL. Further, in data set [5] (one 35 μL drop of formulation 1 (3 mg/ml PP-001) in both eyes), the “absorption of PP-001 by ocular tissues (conjunctiva, cornea)” value is on record as “substantial amounts of PP-001 are absorbed by ocular tissues”. The “persistence in the cornea” value in data set [5] (one 35 μL drop of formulation 1 (3 mg/ml PP-001), up to 12 hours after dosing) is reported as “highly persistent in the cornea”. In addition, the figures for the solubility (thermodynamic) in data set [1] (setting [8]) and in data set [1] (setting [9]) were 48 µg/mL (≈ 100 µM) and 2910 µg/mL (≈ 6070 µM), respectively. The solubility in data set [6] (aqueous buffer with 5% albumin, aqueous with cosolvent or surfactant or cyclodextrin, buffer pH 7.4 with 5% albumin, read-out: solubility in aqueous buffer solution comprising 5% albumin) was ≥ 5000 µg/mL; in data set [6] (aqueous phosphate buffer, aqueous buffer, phosphate buffer pH 7.4, read-out: aqueous solubility in phosphate buffer pH 7.4) it was 800 µg/mL (≈ 1670 µM). Further, the “% bound” value in data set [2] is recorded as ~100%; in data set [2] (isolated protein), 99.9%. Further, the “relapses of experimental autoimmune uveitis” value in data set [7] (therapeutic approach) is on record as “prevents relapses”. The “clinical and histological symptoms of uveitis” value in data set [7] (two different rat models for uveitis) is “completely ameliorates clinical and histological symptoms”.
`CC(=O)OCC(=O)[C@@]1(O)CC[C@H]2[C@@H]3CCC4=CC(=O)C=C[C@]4(C)[C@H]3[C@@H](O)C[C@@]21C` [Prednisolone acetate]: the “% bound” value in data set [2] (isolated protein) is 94.3%.
Netarsudil mesylate: the “Thermodynamic solubility in 5% HSA in PBS pH 7.4” value in data set [1] (5% HSA in PBS pH 7.4, saturated, LC/MS) was determined as 0.140 mg/mL. Also, the “Thermodynamic solubility in PBS pH 7.4” value in data set [1] (PBS pH 7.4, saturated, LC/MS) is given as <0.000051 mg/mL. The results for the Increase in solubility in data set [1] and in data set [1] (listed as netarsudil mesylate) were >10,000% and > 274,763%, respectively.
